Read-outs that look alike come from different tables or passages of the source.
How the values were obtained:
H358 cells = test: Detection of cell proliferation inhibition, H358 (Cell-titer Glo, 96 h); format: cell-based
Method: H358 cells were plated in 96-well ultra-low adsorption plates at 2000 cells and 190 µL/well. After overnight incubation, compound solutions of gradient concentrations were prepared, and 10 µL of the DMSO solution of each concentration of the compound to be tested was added to the cells in each well. Compound final concentrations were 10000, 3333.3, 1111.1, 370.4, 123.5, 41.2, 13.7, 4.6, 1.5, 0 nM (all final concentrations of DMSO were 0.25%). Incubate at 37° C., 5% CO2 for 96 h. Add 50 µL of Cell-titer Glo working solution to each well, incubate at room temperature for 10 min after shaking and mixing, read the Luminescence luminescence value with a multi-function microplate reader, and convert the luminescence value reading into the inhibition percentage:
Percent Inhibition = (Max-Reading)/(Max-Min)* 100. • “Max” is the DMSO control, • “Min” is the cell-free control.
Curve fitting was performed with Graphpad Prism software and IC50 values were obtained. See Table 1 for IC50 data on H358 cell inhibition by example compounds.

MIA PaCa-2 cells = test: Detection of cell proliferation inhibition, MIA PaCa-2 (Cell-titer Glo, 96 h); format: cell-based
Method: MIA PaCa-2 cells were plated in a 96-well ultra-low adsorption plate at 600 cells and 160 µL/well. After overnight incubation, compound solutions with gradient concentrations were prepared, and 40 µL of DMSO solutions of the compounds to be tested were added to each well of cells respectively. Compound final concentrations were 10000, 2000, 400, 80, 16, 3.2, 0.64, 0.12, 0.025, 0 nM (all final concentrations of DMSO were 0.25%). Incubate at 37° C., 5% CO2 for 96 h. Add 50 µL of Cell-titer Glo working solution to each well, shake and mix well, incubate at room temperature for 10 min, read the Luminescence luminescence value with a multi-function microplate reader, and convert the luminescence value reading into inhibition percentage: Percent Inhibition = (Max-Reading)/(Max-Min)* 100. • “Max” is the DMSO control; • “Min” is the cell-free control.
Curve fitting was performed with Graphpad Prism software and IC50 values were obtained. See Table 1for IC50 data for the inhibition of MIA PaCa-2 cells by the compounds of the examples.

[1] = Homo sapiens, NCI-H358, read-out: IC50 (nM) H358
[2] = Homo sapiens, read-out: IC50 (nM) MIA PaCa-2
[3] = Homo sapiens, read-out: IC50 MIA PaCa-2

| Molecule | IC50 (H358 cells; read-out: IC50 (nM) H358) [nM] | IC50 (MIA PaCa-2 cells; read-out: IC50 (nM) MIA PaCa-2) [nM] | IC50 (H358 cells; [1]) [nM] | IC50 (MIA PaCa-2 cells; [2]) [nM] | further results |
| --- | --- | --- | --- | --- | --- |
| C=CC(=O)N1CCN(c2nc(=O)n(-c3c(C)ccnc3C(C)C)c3c4c(c(F)cc23)-c2ccccc2CO4)[C@@H](C)C1 [Example 1] | 491 | 90.2 |  |  |  |
| C=CC(=O)N1CCN(c2nc(=O)n(-c3c(C)ccnc3C(C)C)c3c(F)c4c(cc23)OCc2ccccc2-4)[C@@H](C)C1 [Example 2] | 295 | 122 |  |  |  |
| C=CC(=O)N1CCN(c2nc(=O)n(-c3c(C)ccnc3C(C)C)c3c4c(c(F)cc23)-c2c(F)cccc2CO4)[C@@H](C)C1 [Example 3] | 78 | < 50 |  |  |  |
| C=CC(=O)N1CCN(c2nc(=O)n(-c3c(C)ccnc3C(C)C)c3c(F)c4c(cc23)OCc2cccc(Cl)c2-4)[C@@H](C)C1 [Example 6, (S)-8-(Acryloyl-2-Methylpiperazin-1-yl)-1-Chloro-12-Fluoro-11-(2-Isopropyl-4-Methylpyridin-3-yl)-5 H-Isochromene[3,4-g] Quinazolin-10(11 H)-one] | 496 | 272 |  |  |  |
| C=CC(=O)N1CCN(c2nc(=O)n(-c3c(C)ccnc3C(C)C)c3c(F)c4c(cc23)OCCc2ccccc2-4)[C@@H](C)C1 [Example 8] |  |  | 155 | 85 |  |
| C=CC(=O)N1CCN(c2nc(=O)n(-c3c(C)ccnc3C(C)C)c3c4c(c(F)cc23)-c2c(O)cccc2CO4)[C@@H](C)C1 [Example 9, (S)(Acryloyl-2-methylpiperazinyl)-11-fluoro-10-hydroxy-4-(2-isopropyl-4-methylpyridin-3-yl) -4 H-isochromene[4,3-h] quinazolin-3(6 H)-one] |  |  |  |  | IC50 (H358 cells; Homo sapiens, NCI-H358, read-out: IC50 H358): > 10000 nM; IC50 (MIA PaCa-2 cells; [3]): > 10000 nM |
| C=CC(=O)N1CCN(c2nc(=O)n(-c3c(C)ccnc3C(C)C)c3c(F)c4c(cc23)OCc2cccc(O)c2-4)[C@@H](C)C1 [Example 10, (S)-8-(Acryloyl-2-Methylpiperazin-1-yl)-12-Fluoro-1-Hydroxy-1l-(2-Isopropyl-4-Methylpyridin-3-yl)-5H-Isochromene[3,4-g]Quinazolin-10(11H)-One] |  |  | 3870 | 3110 |  |
| C=CC(=O)N1CCN(c2nc(=O)n(-c3c(C)ccnc3C(C)C)c3c4c(c(F)cc23)-c2c(cccc2OC)CO4)[C@@H](C)C1 [Example 11, (S)-1-(Acryloyl-2-Methylpiperazin-1-yl)-l1-Fluoro-10-Methoxy-4-(2-Isopropyl-4-Methylpyridin-3-yl)-4H-Isochromene[4,3-h] Quinazolin-3(6H)-one] |  |  | 2040 | 964 |  |
| C=CC(=O)N1CCN(c2nc(=O)n(-c3c(C)ccnc3C(C)C)c3c4c(c(Cl)cc23)-c2c(F)cccc2CO4)[C@@H](C)C1 [Example 13, (S)-1-(4-Acryloyl-2-Methylpiperazin-1-yl)-11-Chloro-10-Fluoro-4-(2-Isopropyl-4-Methylpyridin-3-yl)-4H-Isochromene[4,3-h] Quinazolin-3(6H)-One] | < 50 | < 50 |  |  |  |
| C=CC(=O)N1CCN(c2nc(=O)n(-c3c(C)ccnc3C(C)C)c3c4c(c(C=C)cc23)-c2c(F)cccc2CO4)[C@@H](C)C1 [Example 14, (S)-1-(4-Acryloyl-2-Methylpiperazin-1-yl)-10-Fluoro-4-(2-Isopropyl-4-Methylpyridine-3-yl)-11-Vinyl-4H-Isochromene[4,3-h] Quinazolin-3(6H)-One] | < 50 | < 50 |  |  |  |
| C=CC(=O)N1CCN(c2nc(=O)n(-c3c(C)ccnc3C(C)C)c3c4c(c(C)cc23)-c2c(F)cccc2CO4)[C@@H](C)C1 [Example 15, (S)-1-(4-Acryloyl-2-Methylpiperazin-1-yl)-10-Fluoro-4-(2-Isopropyl-4-Methylpyridine-3-yl)-11-Methyl-4H-Isochromene[4,3-h] Quinazolin-3(6H)-One] | < 50 | < 50 |  |  |  |
| C=CC(=O)N1CCN(c2nc(=O)n(-c3c(C)ccnc3C(C)C)c3c(F)c4c(cc23)OCc2ccc(F)c(F)c2-4)[C@@H](C)C1 [Example 17, (S)-8-(4-Acryloyl-2-Methylpiperazin-1-yl)-1,2,12-Trifluoro-11-(2-Isopropyl-4 -Methylpyridin-3-yl)-5H Isochromene[3,4-g] Quinazolin-10(11H)-One] |  |  | 274 | 317 |  |
| C=CC(=O)N1CCN(c2nc(=O)n(-c3c(C)ccnc3C(C)C)c3c4c(c(Cl)cc23)-c2c(ccc(F)c2F)CO4)[C@@H](C)C1 [Example 18, (S)-1-(4-Acryloyl-2-Methylpiperazin-1-yl)-11-Chloro-9,10-Difluoro-4-(2-Isopropyl-4-Methylpyridin-3-yl)-4H-Isochromene[4,3-h] Quinazolin-3(6H)-One] |  |  | < 50 | < 50 |  |
| C=CC(=O)N1CCN(c2nc(=O)n(-c3c(C)ccnc3C(C)C)c3c4c(c(Cl)cc23)-c2c(F)cccc2CCO4)[C@@H](C)C1 [Example 19, 10-((S)-4-Acryloyl-2-Methylpiperazin-1-yl)-8-Chloro-7-Fluoro-13-(2-Isopropyl-4-Methylpyridin-3-yl)-2,3-Dihydrobenzo[4,5]oxa[3,2-h]Quinazo1in-12(13H)-One] |  |  | < 50 | < 50 |  |
| C=CC(=O)N1CCN(c2nc(=O)n(-c3c(C)ccnc3C(C)C)c3c4c(c(F)cc23)-c2c(ccc3ccccc23)CO4)[C@@H](C)C1 [Example 21, (S)-1-(4-Acryloyl-2-Methylpiperazin-1-yl)-13-Fluoro-4-(2-Isopropyl-4-Methylpyridine-3-yl)-4H-Benzo[5,6] Isochromene[4,3-h]Quinazolin-3(6H)-one] |  |  | 690 | 1700 |  |
| C=CC(=O)N1CCN(c2nc(=O)n(-c3c(C)ccnc3C(C)C)c3c4c(c(Cl)cc23)-c2cnccc2CO4)[C@@H](C)C1 [Example 23, (S)-1-(4-Acryloyl-2-Methylpiperazin-1-yl)-11-Chloro-4-(2-Isopropyl-4-Methylpyridine-3-yl)-4H-Pyridin[3’,4’:4,5]Pyrano[3.2-h]Quinazolin-3(6H)-One] |  |  | 532 | 292 |  |

Second part, led by results:

| IC50 (H358 cells; read-out: IC50 (nM) H358) [nM] | IC50 (MIA PaCa-2 cells; read-out: IC50 (nM) MIA PaCa-2) [nM] | IC50 (H358 cells; [1]) [nM] | IC50 (MIA PaCa-2 cells; [2]) [nM] | Molecule | further results |
| --- | --- | --- | --- | --- | --- |
| 137 | 70 |  |  | 10-((S)-4-(Acryloyl-2-Methylpiperazin-1-yl)-8-Fluoro-13-(2-Isopropyl-4-Methyl) Pyridin-3-yl)-2,3-Dihydrobenzo [4,5] Oxodipine [3,2-h] Quinolin-12(13H)One [Example 7] |  |
| 191 | 63 |  |  | C=CC(=O)N1CCN(c2nc(=O)n(-c3c(C)ccnc3C(C)C)c3c(F)c4c(cc23)OCc2cccc(F)c2-4)[C@@H](C)C1 [Example 4, (S)-8-(Acryloyl-2-Methylpiperazin-1-yl)-1,12-Difluoro-11-(2-Isopropyl-4-Methylpyridin-3-yl)-5H-Isochromene[3,4-g] Quinazolin-10(11H)-One] |  |
| 115 | < 50 |  |  | C=CC(=O)N1CCN(c2nc(=O)n(-c3c(C)ccnc3C(C)C)c3c4c(c(F)cc23)-c2c(Cl)cccc2CO4)[C@@H](C)C1 [Example 5, (S)-1-(Acryloyl-2-Methylpiperazin-1-yl)-10-Chloro-11-Fluoro-4-(2-Isopropyl-4-Methylpyridin-3-yl)-4H-Isochromene[4,3-h] Quinazolin-3(6H)-One] |  |
|  |  | 3180 |  | C=CC(=O)N1CCN(c2nc(=O)n(-c3c(C)ccnc3C(C)C)c3c(F)c4c(cc23)OCc2cccc(OC)c2-4)[C@@H](C)C1 [Example 12, (S)-8-(Acryloyl-2-Methylpiperazin-1-yl)-12-Fluoro-1-Methoxy-11-(2-Isopropyl-4-Methylpyridin-3-yl)-5H-Isochromene[3,4-g] Quinazolin-10(11H)-One] | IC50 (MIA PaCa-2 cells; [3]): > 2000 nM |
| 80.6 | < 50 |  |  | C=CC(=O)N1CCN(c2nc(=O)n(-c3c(C)ccnc3C(C)C)c3c4c(c(C(F)(F)F)cc23)-c2c(F)cccc2CO4)[C@@H](C)C1 [Example 16, (S)-1-(4-Acryloyl-2-Methylpiperazin-1-yl)-10-Fluoro-4-(2-Isopropyl-4-Methylpyridine-3-yl)-11-(Trifluoromethyl)-4H-Isochromene[4,3-h] Quinazolin-3(6H)-One] |  |
|  |  | 62.6 | 64.2 | C=CC(=O)N1CCN(c2nc(=O)n(-c3c(C)ccnc3C(C)C)c3c4c(c(Cl)cc23)-c2cccnc2CO4)[C@@H](C)C1 [Example 20, (S)-7-(4-Acryloyl-2-Methylpiperazin-1-yl)-5-Chloro-10-(2-Isopropyl-4-Methylpyridine-3-yl)-10H Pyridin[3’,2’:4,5] Pyrano[3,2-h]Quinazolin-9(12H)-One] |  |
|  |  | 3740 | 2500 | C=CC(=O)N1CCN(c2nc(=O)n(-c3c(C)ccnc3C(C)C)c3c(F)c4c(cc23)OCc2ccc3ccccc3c2-4)[C@@H](C)C1 [Example 22, (S)-10-(4-Acryloyl-2-Methylpiperazin-1-yl)-14-Fluoro-13-(2-Isopropyl-4-Methylpyridine-3-yl)-7H-Benzo[5,6] Isochromene[3,4-g]Quinazolin-12(13H)-One] |  |
